# Molecular target: T1, Estrogen receptor (Homo sapiens, UniProt P03372); further: in other assays of this panel Not Active means under 50% inhibition at 10 µM
# T1 sequence (P03372 whole entry): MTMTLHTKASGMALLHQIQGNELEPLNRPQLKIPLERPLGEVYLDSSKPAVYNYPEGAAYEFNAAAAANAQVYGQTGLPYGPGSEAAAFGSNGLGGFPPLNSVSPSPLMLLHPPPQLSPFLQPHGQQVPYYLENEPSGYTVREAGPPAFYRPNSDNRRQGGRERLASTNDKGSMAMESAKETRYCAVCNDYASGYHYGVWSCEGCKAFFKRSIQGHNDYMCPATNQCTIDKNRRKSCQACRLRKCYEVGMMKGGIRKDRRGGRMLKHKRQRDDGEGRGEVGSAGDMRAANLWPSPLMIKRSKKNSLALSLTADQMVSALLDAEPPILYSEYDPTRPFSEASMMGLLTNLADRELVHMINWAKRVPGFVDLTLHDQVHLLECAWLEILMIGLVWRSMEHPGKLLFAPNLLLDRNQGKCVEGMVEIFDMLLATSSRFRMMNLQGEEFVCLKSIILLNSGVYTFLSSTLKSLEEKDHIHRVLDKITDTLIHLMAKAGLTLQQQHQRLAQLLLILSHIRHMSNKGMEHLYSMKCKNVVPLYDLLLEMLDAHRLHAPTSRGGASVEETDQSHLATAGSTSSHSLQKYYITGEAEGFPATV
# Conditions: sf9
row,SMILES,IC50
1,Nn1nnc2ccccc21,Not Active
2,CCOC(=O)[C@H](CCc1ccccc1)N[C@@H](C)C(=O)N1Cc2ccccc2C[C@H]1C(=O)O,Not Active
3,O=C(c1ccccc1Cl)N1CCC(Cc2ccccc2)CC1,Not Active
4,"Clc1cc2c(cc1Cl)Oc1cc(Cl)c(Cl)cc1O2 [2,3,7,8-TETRACHLORODIBENZO-P-DIOXIN]",Not Active
5,CCCCCC[C@H]1C(=O)O[C@H](C)[C@H](NC(=O)c2cccc(NC=O)c2O)C(=O)O[C@@H](C)[C@@H]1OC(=O)CC(C)C [ANTIMYCIN A],Not Active
6,CO[C@H]1[C@@H](O)[C@H](N)[C@@H](O[C@H]2O[C@H]([C@H](C)N)CC[C@H]2N)[C@H](O)[C@@H]1N(C)C(=O)CN [ASTROMICIN],Not Active
7,CCC[C@@H]1C[C@@H](C(=O)N[C@@H]([C@H]2O[C@H](SC)[C@H](O)[C@@H](O)[C@H]2O)[C@H](C)Cl)N(C)C1 [CLINDAMYCIN],Not Active
8,CN1C[C@H](C(=O)N[C@]2(C)O[C@@]3(O)[C@@H]4CCCN4C(=O)[C@H](Cc4ccccc4)N3C2=O)C[C@@H]2c3cccc4[nH]cc(c34)C[C@H]21 [DIHYDROERGOTAMINE],Not Active
9,O=C(O)Cc1ccc(-c2ccccc2)cc1 [FELBINAC],Not Active

# Molecular target: T2, Substance-K receptor (Homo sapiens, UniProt P21452); further: in other assays of this panel Not Active means under 50% inhibition at 10 µM
# T2 sequence (P21452 whole entry): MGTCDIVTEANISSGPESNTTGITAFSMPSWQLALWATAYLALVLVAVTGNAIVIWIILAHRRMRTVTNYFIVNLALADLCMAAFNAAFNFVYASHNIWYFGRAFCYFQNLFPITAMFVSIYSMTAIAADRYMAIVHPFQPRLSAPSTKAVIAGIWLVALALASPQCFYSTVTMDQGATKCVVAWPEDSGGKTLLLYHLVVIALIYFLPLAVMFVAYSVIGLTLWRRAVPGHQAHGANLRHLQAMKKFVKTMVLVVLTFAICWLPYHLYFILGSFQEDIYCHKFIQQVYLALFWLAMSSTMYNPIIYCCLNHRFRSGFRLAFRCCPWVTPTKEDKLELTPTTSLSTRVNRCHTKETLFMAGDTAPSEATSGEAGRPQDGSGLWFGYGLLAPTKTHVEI
# Format: cell membranes, CHO, Membrane
# Conditions: cho
row,SMILES,IC50
1,Nn1nnc2ccccc21,Not Active
2,CCOC(=O)[C@H](CCc1ccccc1)N[C@@H](C)C(=O)N1Cc2ccccc2C[C@H]1C(=O)O,Not Active
3,O=C(c1ccccc1Cl)N1CCC(Cc2ccccc2)CC1,Not Active
4,"Clc1cc2c(cc1Cl)Oc1cc(Cl)c(Cl)cc1O2 [2,3,7,8-TETRACHLORODIBENZO-P-DIOXIN]",Not Active
5,CCCCCC[C@H]1C(=O)O[C@H](C)[C@H](NC(=O)c2cccc(NC=O)c2O)C(=O)O[C@@H](C)[C@@H]1OC(=O)CC(C)C [ANTIMYCIN A],Not Active
6,CO[C@H]1[C@@H](O)[C@H](N)[C@@H](O[C@H]2O[C@H]([C@H](C)N)CC[C@H]2N)[C@H](O)[C@@H]1N(C)C(=O)CN [ASTROMICIN],Not Active
7,CCC[C@@H]1C[C@@H](C(=O)N[C@@H]([C@H]2O[C@H](SC)[C@H](O)[C@@H](O)[C@H]2O)[C@H](C)Cl)N(C)C1 [CLINDAMYCIN],Not Active
8,CN1C[C@H](C(=O)N[C@]2(C)O[C@@]3(O)[C@@H]4CCCN4C(=O)[C@H](Cc4ccccc4)N3C2=O)C[C@@H]2c3cccc4[nH]cc(c34)C[C@H]21 [DIHYDROERGOTAMINE],Not Active
9,O=C(O)Cc1ccc(-c2ccccc2)cc1 [FELBINAC],Not Active

# System: not listed separately
# Test: DRUGMATRIX: Calcium Channel Type L, Dihydropyridine radioligand binding (ligand: [3H] Nitrendipine)
# Format: cell membranes, Rattus norvegicus, Wistar, Cerebral cortex, Membrane
# Conditions: Not Active = under 50% inhibition at 10 µM
SMILES,IC50,Ki
Nn1nnc2ccccc21,Not Active,Not Active
CCOC(=O)[C@H](CCc1ccccc1)N[C@@H](C)C(=O)N1Cc2ccccc2C[C@H]1C(=O)O,Not Active,Not Active
O=C(c1ccccc1Cl)N1CCC(Cc2ccccc2)CC1,Not Active,Not Active
"Clc1cc2c(cc1Cl)Oc1cc(Cl)c(Cl)cc1O2 [2,3,7,8-TETRACHLORODIBENZO-P-DIOXIN]",Not Active,Not Active
CCCCCC[C@H]1C(=O)O[C@H](C)[C@H](NC(=O)c2cccc(NC=O)c2O)C(=O)O[C@@H](C)[C@@H]1OC(=O)CC(C)C [ANTIMYCIN A],Not Active,Not Active
CO[C@H]1[C@@H](O)[C@H](N)[C@@H](O[C@H]2O[C@H]([C@H](C)N)CC[C@H]2N)[C@H](O)[C@@H]1N(C)C(=O)CN [ASTROMICIN],Not Active,Not Active
CCC[C@@H]1C[C@@H](C(=O)N[C@@H]([C@H]2O[C@H](SC)[C@H](O)[C@@H](O)[C@H]2O)[C@H](C)Cl)N(C)C1 [CLINDAMYCIN],Not Active,Not Active
CN1C[C@H](C(=O)N[C@]2(C)O[C@@]3(O)[C@@H]4CCCN4C(=O)[C@H](Cc4ccccc4)N3C2=O)C[C@@H]2c3cccc4[nH]cc(c34)C[C@H]21 [DIHYDROERGOTAMINE],Not Active,Not Active
O=C(O)Cc1ccc(-c2ccccc2)cc1 [FELBINAC],Not Active,Not Active

# System: not listed separately
# Test: DRUGMATRIX: Serotonin (5-Hydroxytryptamine) 5-HT3 radioligand binding (ligand: [3H] GR-65630)
# Format: cell membranes, Membrane
# Conditions: hek293; Not Active = under 50% inhibition at 10 µM
SMILES,IC50,Ki
Nn1nnc2ccccc21,Not Active,Not Active
CCOC(=O)[C@H](CCc1ccccc1)N[C@@H](C)C(=O)N1Cc2ccccc2C[C@H]1C(=O)O,Not Active,Not Active
O=C(c1ccccc1Cl)N1CCC(Cc2ccccc2)CC1,Not Active,Not Active
"Clc1cc2c(cc1Cl)Oc1cc(Cl)c(Cl)cc1O2 [2,3,7,8-TETRACHLORODIBENZO-P-DIOXIN]",Not Active,Not Active
CCCCCC[C@H]1C(=O)O[C@H](C)[C@H](NC(=O)c2cccc(NC=O)c2O)C(=O)O[C@@H](C)[C@@H]1OC(=O)CC(C)C [ANTIMYCIN A],Not Active,Not Active
CO[C@H]1[C@@H](O)[C@H](N)[C@@H](O[C@H]2O[C@H]([C@H](C)N)CC[C@H]2N)[C@H](O)[C@@H]1N(C)C(=O)CN [ASTROMICIN],Not Active,Not Active
CCC[C@@H]1C[C@@H](C(=O)N[C@@H]([C@H]2O[C@H](SC)[C@H](O)[C@@H](O)[C@H]2O)[C@H](C)Cl)N(C)C1 [CLINDAMYCIN],Not Active,Not Active
CN1C[C@H](C(=O)N[C@]2(C)O[C@@]3(O)[C@@H]4CCCN4C(=O)[C@H](Cc4ccccc4)N3C2=O)C[C@@H]2c3cccc4[nH]cc(c34)C[C@H]21 [DIHYDROERGOTAMINE],Not Active,Not Active
O=C(O)Cc1ccc(-c2ccccc2)cc1 [FELBINAC],Not Active,Not Active

# Molecular target: Nitric oxide synthase 1 (Rattus norvegicus, UniProt P29476); further: in other assays of this panel Not Active means under 50% inhibition at 10 µM
# Sequence (P29476 whole entry): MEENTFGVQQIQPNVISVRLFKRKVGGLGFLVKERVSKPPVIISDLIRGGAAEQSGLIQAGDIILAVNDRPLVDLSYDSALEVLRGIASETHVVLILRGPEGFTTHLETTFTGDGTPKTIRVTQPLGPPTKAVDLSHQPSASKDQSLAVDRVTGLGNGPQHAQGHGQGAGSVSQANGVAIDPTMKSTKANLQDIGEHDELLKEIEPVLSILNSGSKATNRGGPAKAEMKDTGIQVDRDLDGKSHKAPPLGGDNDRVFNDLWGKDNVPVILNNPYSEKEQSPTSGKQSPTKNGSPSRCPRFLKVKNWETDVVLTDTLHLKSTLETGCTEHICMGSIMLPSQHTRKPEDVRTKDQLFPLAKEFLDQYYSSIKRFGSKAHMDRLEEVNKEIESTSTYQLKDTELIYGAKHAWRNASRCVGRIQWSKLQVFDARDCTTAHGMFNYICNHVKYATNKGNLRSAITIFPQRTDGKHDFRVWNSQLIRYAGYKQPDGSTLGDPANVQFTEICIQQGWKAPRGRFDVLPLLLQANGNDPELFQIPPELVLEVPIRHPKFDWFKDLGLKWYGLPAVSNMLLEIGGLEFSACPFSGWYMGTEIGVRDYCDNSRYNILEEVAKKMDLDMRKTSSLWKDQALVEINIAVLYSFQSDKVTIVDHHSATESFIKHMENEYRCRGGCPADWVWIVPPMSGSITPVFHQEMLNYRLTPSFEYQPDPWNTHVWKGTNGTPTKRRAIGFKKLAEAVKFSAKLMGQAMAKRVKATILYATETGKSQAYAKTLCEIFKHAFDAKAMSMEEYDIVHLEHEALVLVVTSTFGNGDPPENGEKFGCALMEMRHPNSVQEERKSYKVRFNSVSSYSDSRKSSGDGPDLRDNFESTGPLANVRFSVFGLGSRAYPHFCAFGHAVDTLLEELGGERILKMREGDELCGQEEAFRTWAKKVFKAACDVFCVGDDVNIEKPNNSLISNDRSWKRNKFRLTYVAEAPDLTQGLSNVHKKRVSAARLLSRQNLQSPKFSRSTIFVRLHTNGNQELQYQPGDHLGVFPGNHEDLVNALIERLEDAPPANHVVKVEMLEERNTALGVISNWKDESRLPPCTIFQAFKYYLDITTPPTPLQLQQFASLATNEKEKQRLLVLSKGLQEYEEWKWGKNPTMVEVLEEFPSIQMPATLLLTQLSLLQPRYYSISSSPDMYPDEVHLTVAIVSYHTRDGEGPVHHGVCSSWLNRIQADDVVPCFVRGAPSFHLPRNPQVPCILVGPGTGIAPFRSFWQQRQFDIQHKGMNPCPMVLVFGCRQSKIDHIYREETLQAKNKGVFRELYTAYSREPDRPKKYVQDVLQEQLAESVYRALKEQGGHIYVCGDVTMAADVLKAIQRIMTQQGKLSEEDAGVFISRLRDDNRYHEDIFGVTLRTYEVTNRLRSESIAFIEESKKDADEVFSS
# Format: tissue-based, Cerebellum
# Conditions: not given
row,SMILES,IC50
1,Nn1nnc2ccccc21,Not Active
2,CCOC(=O)[C@H](CCc1ccccc1)N[C@@H](C)C(=O)N1Cc2ccccc2C[C@H]1C(=O)O,Not Active
3,O=C(c1ccccc1Cl)N1CCC(Cc2ccccc2)CC1,Not Active
4,"Clc1cc2c(cc1Cl)Oc1cc(Cl)c(Cl)cc1O2 [2,3,7,8-TETRACHLORODIBENZO-P-DIOXIN]",Not Active
5,CCCCCC[C@H]1C(=O)O[C@H](C)[C@H](NC(=O)c2cccc(NC=O)c2O)C(=O)O[C@@H](C)[C@@H]1OC(=O)CC(C)C [ANTIMYCIN A],Not Active
6,CO[C@H]1[C@@H](O)[C@H](N)[C@@H](O[C@H]2O[C@H]([C@H](C)N)CC[C@H]2N)[C@H](O)[C@@H]1N(C)C(=O)CN [ASTROMICIN],Not Active
7,CCC[C@@H]1C[C@@H](C(=O)N[C@@H]([C@H]2O[C@H](SC)[C@H](O)[C@@H](O)[C@H]2O)[C@H](C)Cl)N(C)C1 [CLINDAMYCIN],Not Active
8,CN1C[C@H](C(=O)N[C@]2(C)O[C@@]3(O)[C@@H]4CCCN4C(=O)[C@H](Cc4ccccc4)N3C2=O)C[C@@H]2c3cccc4[nH]cc(c34)C[C@H]21 [DIHYDROERGOTAMINE],Not Active
9,O=C(O)Cc1ccc(-c2ccccc2)cc1 [FELBINAC],Not Active

# Molecular target: Mitogen-activated protein kinase 3 (Homo sapiens, UniProt P27361)
# Sequence (P27361 whole entry): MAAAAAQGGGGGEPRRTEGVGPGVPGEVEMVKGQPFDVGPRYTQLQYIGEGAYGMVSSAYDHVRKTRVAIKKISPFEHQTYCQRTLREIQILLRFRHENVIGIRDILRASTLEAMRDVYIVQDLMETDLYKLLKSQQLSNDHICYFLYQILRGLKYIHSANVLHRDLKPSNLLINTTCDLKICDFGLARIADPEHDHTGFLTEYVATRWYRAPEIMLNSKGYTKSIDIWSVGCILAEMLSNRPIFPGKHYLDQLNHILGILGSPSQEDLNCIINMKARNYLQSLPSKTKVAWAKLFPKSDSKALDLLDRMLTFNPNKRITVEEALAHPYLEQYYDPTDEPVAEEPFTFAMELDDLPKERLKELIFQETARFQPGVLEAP
# Test: DRUGMATRIX: Protein Serine/Threonine Kinase, ERK1 enzyme inhibition (substrate: Myelin Basic Protein)
# Design: species or system Escherichia coli
# Conditions: Not Active = under 50% inhibition at 10 µM
row,SMILES,IC50
1,Nn1nnc2ccccc21,Not Active
2,CCOC(=O)[C@H](CCc1ccccc1)N[C@@H](C)C(=O)N1Cc2ccccc2C[C@H]1C(=O)O,Not Active
3,O=C(c1ccccc1Cl)N1CCC(Cc2ccccc2)CC1,Not Active
4,"Clc1cc2c(cc1Cl)Oc1cc(Cl)c(Cl)cc1O2 [2,3,7,8-TETRACHLORODIBENZO-P-DIOXIN]",Not Active
5,CCCCCC[C@H]1C(=O)O[C@H](C)[C@H](NC(=O)c2cccc(NC=O)c2O)C(=O)O[C@@H](C)[C@@H]1OC(=O)CC(C)C [ANTIMYCIN A],Not Active
6,CO[C@H]1[C@@H](O)[C@H](N)[C@@H](O[C@H]2O[C@H]([C@H](C)N)CC[C@H]2N)[C@H](O)[C@@H]1N(C)C(=O)CN [ASTROMICIN],Not Active
7,CCC[C@@H]1C[C@@H](C(=O)N[C@@H]([C@H]2O[C@H](SC)[C@H](O)[C@@H](O)[C@H]2O)[C@H](C)Cl)N(C)C1 [CLINDAMYCIN],Not Active
8,CN1C[C@H](C(=O)N[C@]2(C)O[C@@]3(O)[C@@H]4CCCN4C(=O)[C@H](Cc4ccccc4)N3C2=O)C[C@@H]2c3cccc4[nH]cc(c34)C[C@H]21 [DIHYDROERGOTAMINE],Not Active
9,O=C(O)Cc1ccc(-c2ccccc2)cc1 [FELBINAC],Not Active

# Molecular target: Cytochrome P450 2C19 (Homo sapiens, UniProt P33261); further: in other assays of this panel Not Active means under 50% inhibition at 10 µM
# Sequence (P33261 whole entry): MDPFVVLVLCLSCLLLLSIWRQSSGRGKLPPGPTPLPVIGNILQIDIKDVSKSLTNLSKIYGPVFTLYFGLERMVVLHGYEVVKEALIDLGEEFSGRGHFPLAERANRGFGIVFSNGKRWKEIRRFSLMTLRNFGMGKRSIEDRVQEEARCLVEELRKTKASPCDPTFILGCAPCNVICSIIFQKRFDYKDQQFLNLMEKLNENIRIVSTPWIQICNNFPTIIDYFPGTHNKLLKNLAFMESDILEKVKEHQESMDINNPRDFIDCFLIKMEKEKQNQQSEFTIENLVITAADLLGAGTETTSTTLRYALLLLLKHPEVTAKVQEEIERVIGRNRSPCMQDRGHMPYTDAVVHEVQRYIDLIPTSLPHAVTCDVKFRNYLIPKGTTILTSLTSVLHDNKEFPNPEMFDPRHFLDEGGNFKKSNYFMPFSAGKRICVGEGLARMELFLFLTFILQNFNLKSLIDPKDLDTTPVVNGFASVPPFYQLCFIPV
# Conditions: bti-tn-5b1-4
SMILES,IC50,Ki
Nn1nnc2ccccc21,Not Active,Not Active
CCOC(=O)[C@H](CCc1ccccc1)N[C@@H](C)C(=O)N1Cc2ccccc2C[C@H]1C(=O)O,Not Active,Not Active
"Clc1cc2c(cc1Cl)Oc1cc(Cl)c(Cl)cc1O2 [2,3,7,8-TETRACHLORODIBENZO-P-DIOXIN]",Not Active,Not Active
CCCCCC[C@H]1C(=O)O[C@H](C)[C@H](NC(=O)c2cccc(NC=O)c2O)C(=O)O[C@@H](C)[C@@H]1OC(=O)CC(C)C [ANTIMYCIN A],Not Active,Not Active
CO[C@H]1[C@@H](O)[C@H](N)[C@@H](O[C@H]2O[C@H]([C@H](C)N)CC[C@H]2N)[C@H](O)[C@@H]1N(C)C(=O)CN [ASTROMICIN],Not Active,Not Active

# — ChEMBL document CHEMBL1909046, “DrugMatrix in vitro pharmacology data”
